# Patent US20240158348A1, “HERBICIDAL CYCLIC AMIDES N-SUBSTITUTED WITH A HALOALKYLSULFONYLANILIDE GROUP” (FMC Corporation, priority 2021, published 2024)
# Tests used:
# Type in all cases: in vivo
# corn (Zea mays) [1] = assay: Test C preemergence, corn; settings: 0 is no effect, 100 is complete control
# Source text: (§1) Seeds of plant species selected from blackgrass (Alopecurus myosuroides), corn (Zea mays), foxtail, giant (giant foxtail, Setaria faberi), goosegrass (Eleusine indica), kochia (Bassia scoparia), oat, wild (wild oat, Avena fatua), pigweed, palmer (palmer amaranth, Amaranthus palmeri), ragweed (common ragweed, Ambrosia artemisiifolia), ryegrass, Italian (Italian ryegrass, Lolium multiflorum), soybean (Glycine max) and wheat (Triticum aestivum) were planted into a blend of loam soil and sand and treated preemergence with a directed soil spray using test chemicals formulated in a non-phytotoxic solvent mixture which included a surfactant.
# (§2) At the same time, plants selected from these crop and weed species and also galium (catchweed bedstraw, Galium aparine) and horseweed (Erigeron canadensis) were planted in pots containing the same blend of loam soil and sand and treated with postemergence applications of test chemicals formulated in the same manner. Plants ranged in height from 2 to 10 cm and were in the one- to two-leaf stage for the postemergence treatment. Treated plants and untreated controls were maintained in a greenhouse for 10 or 12 days, after which time all treated plants were compared to untreated controls and visually evaluated for injury. Plant response ratings, summarized in Table A, are based on a 0 to 100 scale where 0 is no effect and 100 is complete control. A dash (-) response means no test result.
# [2] = test system: foxtail, giant (giant foxtail, Setaria faberi); assay: Test C preemergence, giant foxtail; settings: 0 is no effect, 100 is complete control
# Source text: as §1, §2
# [3] = test system: goosegrass (Eleusine indica); assay: Test C preemergence, goosegrass; settings: 0 is no effect, 100 is complete control
# Source text: as §1, §2
# kochia (Bassia scoparia) [4] = assay: Test C preemergence, kochia; settings: 0 is no effect, 100 is complete control
# Source text: as §1, §2
# [5] = test system: oat, wild (wild oat, Avena fatua); assay: Test C preemergence, wild oat; settings: 0 is no effect, 100 is complete control
# Source text: as §1, §2
# [6] = test system: pigweed, palmer (palmer amaranth, Amaranthus palmeri); assay: Test C preemergence, palmer amaranth; settings: 0 is no effect, 100 is complete control
# Source text: as §1, §2
# [7] = test system: ragweed (common ragweed, Ambrosia artemisiifolia); assay: Test C preemergence, ragweed; settings: 0 is no effect, 100 is complete control
# Source text: as §1, §2
# [8] = test system: ryegrass, Italian (Italian ryegrass, Lolium multiflorum); assay: Test C preemergence, Italian ryegrass; settings: 0 is no effect, 100 is complete control
# Source text: as §1, §2
# soybean (Glycine max) [9] = assay: Test C preemergence, soybean; settings: 0 is no effect, 100 is complete control
# Source text: as §1, §2
# [10] = test system: wheat (Triticum aestivum); assay: Test C preemergence, wheat; settings: 0 is no effect, 100 is complete control
# Source text: as §1, §2
# [11] = test system: blackgrass (Alopecurus myosuroides); assay: Test C postemergence, blackgrass; settings: visual injury, 0 to 100 scale (0 no effect, 100 complete control)
# Source text: as §1, §2
# corn (Zea mays) [12] = assay: Test C postemergence, corn; settings: visual injury, 0 to 100 scale (0 no effect, 100 complete control)
# Source text: as §1, §2
# [13] = test system: foxtail, giant (giant foxtail, Setaria faberi); assay: Test C postemergence, giant foxtail; settings: visual injury, 0 to 100 scale (0 no effect, 100 complete control)
# Source text: as §1, §2
# [14] = test system: goosegrass (Eleusine indica); assay: Test C postemergence, goosegrass; settings: visual injury, 0 to 100 scale (0 no effect, 100 complete control)
# Source text: as §1, §2
# kochia (Bassia scoparia) [15] = assay: Test C postemergence, kochia; settings: visual injury, 0 to 100 scale (0 no effect, 100 complete control)
# Source text: as §1, §2
# [16] = test system: oat, wild (wild oat, Avena fatua); assay: Test C postemergence, wild oat; settings: visual injury, 0 to 100 scale (0 no effect, 100 complete control)
# Source text: as §1, §2
# [17] = test system: pigweed, palmer (palmer amaranth, Amaranthus palmeri); assay: Test C postemergence, palmer amaranth; settings: visual injury, 0 to 100 scale (0 no effect, 100 complete control)
# Source text: as §1, §2
# [18] = test system: ragweed (common ragweed, Ambrosia artemisiifolia); assay: Test C postemergence, ragweed; settings: visual injury, 0 to 100 scale (0 no effect, 100 complete control)
# Source text: as §1, §2
# [19] = test system: ryegrass, Italian (Italian ryegrass, Lolium multiflorum); assay: Test C postemergence, Italian ryegrass; settings: visual injury, 0 to 100 scale (0 no effect, 100 complete control)
# Source text: as §1, §2
# soybean (Glycine max) [20] = assay: Test C postemergence, soybean; settings: visual injury, 0 to 100 scale (0 no effect, 100 complete control)
# Source text: as §1, §2
# [21] = test system: wheat (Triticum aestivum); assay: Test C postemergence, wheat; settings: visual injury, 0 to 100 scale (0 no effect, 100 complete control)
# Source text: as §1, §2
# [22] = test system: galium (catchweed bedstraw, Galium aparine); assay: Test C postemergence, galium; settings: visual injury, 0 to 100 scale (0 no effect, 100 complete control)
# Source text: as §1, §2
# [23] = test system: horseweed (Erigeron canadensis); assay: Test C postemergence, horseweed; settings: visual injury, 0 to 100 scale (0 no effect, 100 complete control)
# Source text: as §1, §2
# [24] = test system: barnyardgrass (Echinochloa crusgalli); assay: Test D flooded paddy test, barnyardgrass; parameters: key: 0 = no effect, 100 = complete control; settings: 250 g ai/ha, Flood; applied to paddy water at 2-leaf stage; visual rating after 13 days; scale 0 (no effect) to 100 (complete control)
# Description: (§3) Plant species in the flooded paddy test selected from barnyardgrass (Echinochloa crusgalli), ducksalad (Heteranthera limosa), rice (Oryza sativa), and sedge, umbrella (small-flower umbrella sedge, Cyperus difformis) were grown to the 2-leaf stage for testing. At time of treatment, test pots were flooded to 3 cm above the soil surface, treated by application of test compounds directly to the paddy water, and then maintained at that water depth for the duration of the test. Treated plants and controls were maintained in a greenhouse for 13 days, after which time all species were compared to controls and visually evaluated. Plant response ratings, summarized in Table B, are based on a scale of 0 to 100 where 0 is no effect and 100 is complete control. A dash (-) response means no test result.
# [25] = test system: ducksalad (Heteranthera limosa); assay: Test D flooded paddy test, ducksalad; parameters: key: 0 = no effect, 100 = complete control; settings: 250 g ai/ha, Flood; applied to paddy water at 2-leaf stage; visual rating after 13 days; scale 0 (no effect) to 100 (complete control)
# Description: as §3
# rice (Oryza sativa) = assay: Test D flooded paddy test, rice; parameters: key: 0 = no effect, 100 = complete control; settings: 250 g ai/ha, Flood; applied to paddy water at 2-leaf stage; visual rating after 13 days; scale 0 (no effect) to 100 (complete control)
# Description: as §3
# [26] = test system: sedge, umbrella (small-flower umbrella sedge, Cyperus difformis); assay: Test D flooded paddy test, umbrella sedge; parameters: key: 0 = no effect, 100 = complete control; settings: 250 g ai/ha, Flood; applied to paddy water at 2-leaf stage; visual rating after 13 days; scale 0 (no effect) to 100 (complete control)
# Description: as §3
smiles,measurement,setting,value
Cc1c(N2CCC(OC3CCC3)C2=O)cc(N(C(=O)OCC(C)C)S(=O)(=O)C(F)(F)F)c(C)c1C (centres unmarked) [Compound 48],"Plant response rating (0 to 100 scale), Corn",corn (Zea mays) [1]; 31 g ai/ha Preemergence,20
same,"Plant response rating (0 to 100 scale), Corn",corn (Zea mays) [1]; 125 g ai/ha Preemergence,60
same,"Plant response rating (0 to 100 scale), Foxtail, Giant",[2]; 31 g ai/ha Preemergence,30
same,"Plant response rating (0 to 100 scale), Foxtail, Giant",[2]; 125 g ai/ha Preemergence,100
same,"Plant response rating (0 to 100 scale), Goosegrass",[3]; 31 g ai/ha Preemergence,80
same,"Plant response rating (0 to 100 scale), Goosegrass",[3]; 125 g ai/ha Preemergence,100
same,"Plant response rating (0 to 100 scale), Kochia",kochia (Bassia scoparia) [4]; 31 g ai/ha Preemergence,10
same,"Plant response rating (0 to 100 scale), Kochia",kochia (Bassia scoparia) [4]; 125 g ai/ha Preemergence,90
same,"Plant response rating (0 to 100 scale), Oat, Wild",[5]; 31 g ai/ha Preemergence,50
same,"Plant response rating (0 to 100 scale), Oat, Wild",[5]; 125 g ai/ha Preemergence,80
same,"Plant response rating (0 to 100 scale), Pigweed, Palmer",[6]; 31 g ai/ha Preemergence,100
same,"Plant response rating (0 to 100 scale), Pigweed, Palmer",[6]; 125 g ai/ha Preemergence,100
same,"Plant response rating (0 to 100 scale), Ragweed",[7]; 31 g ai/ha Preemergence,20
same,"Plant response rating (0 to 100 scale), Ragweed",[7]; 125 g ai/ha Preemergence,90
same,"Plant response rating (0 to 100 scale), Ryegrass, Italian",[8]; 31 g ai/ha Preemergence,60
same,"Plant response rating (0 to 100 scale), Ryegrass, Italian",[8]; 125 g ai/ha Preemergence,100
same,"Plant response rating (0 to 100 scale), Soybean",soybean (Glycine max) [9]; 31 g ai/ha Preemergence,30
same,"Plant response rating (0 to 100 scale), Soybean",soybean (Glycine max) [9]; 125 g ai/ha Preemergence,70
same,"Plant response rating (0 to 100 scale), Wheat",[10]; 31 g ai/ha Preemergence,30
same,"Plant response rating (0 to 100 scale), Wheat",[10]; 125 g ai/ha Preemergence,80
same,Blackgrass plant response rating,[11]; 31 g ai/ha Postemergence,10
same,Blackgrass plant response rating,[11]; 125 g ai/ha Postemergence,30
same,Corn plant response rating,corn (Zea mays) [12]; 31 g ai/ha Postemergence,0
same,Corn plant response rating,corn (Zea mays) [12]; 125 g ai/ha Postemergence,50
same,"Foxtail, Giant plant response rating",[13]; 31 g ai/ha Postemergence,20
same,"Foxtail, Giant plant response rating",[13]; 125 g ai/ha Postemergence,60
same,Goosegrass plant response rating,[14]; 31 g ai/ha Postemergence,0
same,Goosegrass plant response rating,[14]; 125 g ai/ha Postemergence,40
same,Kochia plant response rating,kochia (Bassia scoparia) [15]; 31 g ai/ha Postemergence,20
same,Kochia plant response rating,kochia (Bassia scoparia) [15]; 125 g ai/ha Postemergence,60
same,"Oat, Wild plant response rating",[16]; 31 g ai/ha Postemergence,10
same,"Oat, Wild plant response rating",[16]; 125 g ai/ha Postemergence,20
same,"Pigweed, Palmer plant response rating",[17]; 31 g ai/ha Postemergence,30
same,"Pigweed, Palmer plant response rating",[17]; 125 g ai/ha Postemergence,70
same,Ragweed plant response rating,[18]; 31 g ai/ha Postemergence,30
same,Ragweed plant response rating,[18]; 125 g ai/ha Postemergence,80
same,"Ryegrass, Italian plant response rating",[19]; 31 g ai/ha Postemergence,40
same,"Ryegrass, Italian plant response rating",[19]; 125 g ai/ha Postemergence,60
same,Soybean plant response rating,soybean (Glycine max) [20]; 31 g ai/ha Postemergence,30
same,Soybean plant response rating,soybean (Glycine max) [20]; 125 g ai/ha Postemergence,70
same,Wheat plant response rating,[21]; 31 g ai/ha Postemergence,30
same,Wheat plant response rating,[21]; 125 g ai/ha Postemergence,70
same,Galium plant response rating,[22]; 31 g ai/ha Postemergence,90
same,Galium plant response rating,[22]; 125 g ai/ha Postemergence,100
same,Horseweed plant response rating,[23]; 31 g ai/ha Postemergence,70
same,Horseweed plant response rating,[23]; 125 g ai/ha Postemergence,90
same,"Plant response rating, Barnyardgrass",[24],80
same,"Plant response rating, Ducksalad",[25],95
same,"Plant response rating, Rice",rice (Oryza sativa),25
same,"Plant response rating, Sedge, Umbrella",[26],90
